Activity calls are given as the source filed them. The rule behind the calls is not given here.
Experiments:
Assay type in all cases: cell-based
[1] = target: NAD(P)H dehydrogenase [quinone] 1 (Mus musculus) (UniProt Q64669); assay: Induction of NADPH-dependent quinone reductase activity in mouse Hepa-1c1c7 cells at 28.4 uM after 48 hrs by MTT assay
HEK293 = assay: (§1) Inhibition of NF-kappaB activity in TNF-alpha-induced human HEK293 cells by luciferase assay; conditions: dose or concentration not given here
[2] = target: NAD(P)H dehydrogenase [quinone] 1 (Mus musculus) (UniProt Q64669); assay: Induction of NADPH-dependent quinone reductase activity in mouse Hepa-1c1c7 cells assessed as concentration to double activity after 48 hrs by MTT assay
[3] = target: NAD(P)H dehydrogenase [quinone] 1 (Mus musculus) (UniProt Q64669); assay: Induction of NADPH-dependent quinone reductase activity in mouse Hepa-1c1c7 cells assessed as induction ratio at 28.4 uM after 48 hrs by MTT assay relative to DMSO control
[4] = as §1

Sequence of NAD(P)H dehydrogenase [quinone] 1 (Mus musculus) (Q64669 whole entry): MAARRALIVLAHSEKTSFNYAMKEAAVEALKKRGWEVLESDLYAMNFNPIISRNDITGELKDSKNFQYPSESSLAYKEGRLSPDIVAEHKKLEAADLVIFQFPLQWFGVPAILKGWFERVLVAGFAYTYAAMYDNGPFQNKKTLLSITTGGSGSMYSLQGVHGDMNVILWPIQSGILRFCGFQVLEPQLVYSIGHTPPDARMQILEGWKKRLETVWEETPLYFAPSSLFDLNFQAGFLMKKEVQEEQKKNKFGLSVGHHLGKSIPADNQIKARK

Row | SMILES | Activity [1] | inhibition (HEK293) [%] | CD [2] [µM] | Ratio [3] | IC50 [4] [nM]
1 | CN(C)[C@H]1[C@@H](O)[C@@H](O)[C@H](O[C@]23C=CC=C2c2c4ccc(c2Cl)[C@@H](O)COC(=O)C[C@H](N)c2cc(O)c(c(Cl)c2)O[C@H]43)OC1(C)C | inactive | 46.5 |  |  | 
2 | O=c1cc(-c2ccc(Br)cc2)oc2ccccc12 |  |  | 0.013 |  | 
3 | CC(=O)N[C@H]1CC(=O)OC[C@H](O)c2ccc3c(c2Cl)C2=CC=C[C@]2(O[C@@H]2OC(C)(C)[C@@H](N(C)C)[C@@H](O)[C@H]2O)[C@@H]3Oc2c(O)cc1cc2Cl [FIJIOLIDE A] |  | 70.3 | 1.8 | 3.5 | 570

Reference: ChEMBL document CHEMBL1165961, “Fijiolides A and B, inhibitors of TNF-alpha-induced NFkappaB activation, from a marine-derived sediment bacterium of the genus Nocardiopsis” (J Nat Prod, 2010)
